Results as given in PubChem BioAssay AID1963975 (Molecular Pharmacology Branch, DTP, NCI, 2024).

System: 624824-186-R-J2-PDC multicell spheroids, viability
Test: Anticancer human tumor 624824-186-R-J2-PDC patient-derived colon adenocarcinoma cell line growth inhibition [PI3K]
Details: for IC50: curve of first compound; for viability, T/C: stronger effect = lower value
Text: Combinatorial screen of targeted agents with the PI3K inhibitors inavolisib, alpelisib, duvelisib, and copanlisib in multi-cell type tumor spheroids
A high-throughput screen of multi-cell type tumor spheroids was designed to identify active combinations of targeted small molecules and PI3K pathway inhibitors. Complex spheroids include a stromal component modeled by human endothelial cells (HUVEC) and fibroblasts modeled by human mesenchymal stem cells (MSCs). The concentration ranges selected for each drug and investigational agent were based upon clinically achievable concentrations if the clinical Cmax of the agent was known.
Compounds. The drugs and investigational agents: inavolisib (NSC800729), alpelisib (NSC765974), duvelisib (NSC772469), copanlisib (NSC816437), ipatasertib (NSC767898), afuresertib (NSC778305), talazoparib (NSC767125), sapanisertib (NSC764658), selumetinib (NSC741078), tovorafenib (DAY101, NSC766906), vemurafenib (NSC761431), ravoxertinib (NSC781343), sotorasib (NSC818433), MRTX1133 (NSC 836407), abemaciclib (NSC 768073), palbociclib (NSC758247), venetoclax (NSC 766270), SY5609 (NSC837396), enzalutamide (NSC755605), and darolutamide (NSC825331), were obtained from the National Cancer Institute (NCI) Developmental Therapeutics Program Chemical Repository. The FDA-approved anticancer drug set is available from the NCI Developmental Therapeutics Program. […] The stock solutions were prepared in dimethyl sulfoxide (DMSO, Sigma-Aldrich, St. Louis, MO, cat. D2650) at 800-fold the tested concentration and stored at -70 degrees C prior to their use. All drugs and investigational agents were tested over a range starting from a high concentration at or near the clinical Cmax and decreasing in half-log increments. If the clinical Cmax for an agent had not been determined, the highest concentration tested was 10 microM.
Cell Culture. All cells were maintained in an incubator at 37 degrees C and 5% CO2 with 95% humidity. The PDC lines were cultured according to standard operating procedures established by the NCI PDMR (https://pdmr.cancer.gov/sops/default.htm). All PDCs were thawed and cultured in Matrigel-coated flasks prepared with a working solution of 1X Ham's F-12 nutrient mix, without supplementation (Invitrogen, Waltham, MA, cat. 11765054), 100 U/mL penicillin-streptomycin (Invitrogen, cat. 15140122), and 2.5% Matrigel (Corning Inc., Corning, NY, cat. 354248) for the first three passages. The 354836-022-R-J1-PDC, 475296-252-R-J1-PDC, and 997726-040-R-J2-PDC lines were cultured in 6A media, which includes advanced DMEM/F-12 (Thermo Fisher Scientific, cat. 12634028), 10 mM HEPES (Thermo Fisher Scientific, cat. 15630080), 1X GlutaMAX supplement (Thermo Fisher Scientific, cat. 35050061), 0.1 mg/mL primocin (InvivoGen, San Diego, CA, cat. ant-pm-2), 10% defined fetal bovine serum, heat inactivated (HyClone Laboratories Inc., Logan, UT, cat. SH30070.03HI), 50% L-WRN conditioned media (ATCC, cat. CRL-3276), 1.25 mM N-Acetyl-L-cysteine (Sigma-Aldrich, cat. A9165), 10 mM nicotinamide (Sigma-Aldrich, cat. N0636), 1X B-27 supplement (Thermo Fisher Scientific, cat. 17504044), 1X N-2 supplement (Thermo Fisher Scientific, cat. 17502048), and 10 microM Y-27632 dihydrochloride (Tocris Bioscience, Bristol, United Kingdom, cat. 1254). The 624824-186-R-J2-PDC line was cultured in 6C/Colon 1B media, which includes all 6A media components plus 50 ng/mL human EGF recombinant protein (Thermo Fisher Scientific, cat. PHG0311). […]

[1] = second compound 0.00316 µM, first compound 0.0316 µM
[2] = second compound 0.00316 µM, first compound 0.1 µM
[3] = second compound 0.00316 µM, first compound 0.316 µM
[4] = second compound 0.00316 µM, first compound 1 µM
[5] = second compound 0.00316 µM, first compound 3.16 µM
[6] = second compound 0.00316 µM, first compound 10 µM
[7] = second compound 0.01 µM, first compound 0.0316 µM
[8] = second compound 0.01 µM, first compound 0.1 µM
[9] = second compound 0.01 µM, first compound 0.316 µM
[10] = second compound 0.01 µM, first compound 1 µM
[11] = second compound 0.01 µM, first compound 3.16 µM
[12] = second compound 0.01 µM, first compound 10 µM
[13] = second compound 0.0316 µM, first compound 0.0316 µM
[14] = second compound 0.0316 µM, first compound 0.1 µM
[15] = second compound 0.0316 µM, first compound 0.316 µM
[16] = second compound 0.0316 µM, first compound 1 µM
[17] = second compound 0.0316 µM, first compound 3.16 µM
[18] = second compound 0.0316 µM, first compound 10 µM
[19] = second compound 0.1 µM, first compound 0.0316 µM
[20] = second compound 0.1 µM, first compound 0.1 µM
[21] = second compound 0.1 µM, first compound 0.316 µM
[22] = second compound 0.1 µM, first compound 1 µM
[23] = second compound 0.1 µM, first compound 3.16 µM
[24] = second compound 0.1 µM, first compound 10 µM
[25] = second compound 0.316 µM, first compound 0.0316 µM
[26] = second compound 0.316 µM, first compound 0.1 µM
[27] = second compound 0.316 µM, first compound 0.316 µM
[28] = second compound 0.316 µM, first compound 1 µM
[29] = second compound 0.316 µM, first compound 3.16 µM
[30] = second compound 0.316 µM, first compound 10 µM
[31] = second compound 1 µM, first compound 0.0316 µM
[32] = second compound 1 µM, first compound 0.1 µM
[33] = second compound 1 µM, first compound 0.316 µM
[34] = second compound 1 µM, first compound 1 µM
[35] = second compound 1 µM, first compound 3.16 µM
[36] = second compound 1 µM, first compound 10 µM
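Also: spheroids exposed to agents for 7 days before viability read.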
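For viability, T/C in this document: 100% = DMSO vehicle treated spheroids.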

Structure (SMILES): CC(C)NCC(C(=O)N1CCN(c2ncnc3c2C(C)CC3O)CC1)c1ccc(Cl)cc1 (stereo unspecified) + CC(Nc1ccc2c(c1)OCCn1cc(N3C(=O)OCC3C(F)F)nc1-2)C(N)=O
- IC50 (second compound 0.00316 µM): > 10 µM
- IC50 (second compound 0.01 µM): > 10 µM
- IC50 (second compound 0.0316 µM): > 10 µM
- IC50 (second compound 0.1 µM): > 10 µM
- IC50 (second compound 0.316 µM): > 10 µM
- IC50 (second compound 1 µM): > 10 µM
- viability, T/C [1]: 113%
- viability, T/C [2]: 113%
- viability, T/C [3]: 113%
- viability, T/C [4]: 94.6%
- viability, T/C [5]: 94.9%
- viability, T/C [6]: 92.1%
- viability, T/C [7]: 88.3%
- viability, T/C [8]: 79.1%
- viability, T/C [9]: 72.1%
- viability, T/C [10]: 87%
- viability, T/C [11]: 90.7%
- viability, T/C [12]: 79.7%
- viability, T/C [13]: 98%
- viability, T/C [14]: 95.4%
- viability, T/C [15]: 82.7%
- viability, T/C [16]: 92.8%
- viability, T/C [17]: 95.4%
- viability, T/C [18]: 89.4%
- viability, T/C [19]: 85.7%
- viability, T/C [20]: 84.6%
- viability, T/C [21]: 68%
- viability, T/C [22]: 84.1%
- viability, T/C [23]: 95.1%
- viability, T/C [24]: 70.8%
- viability, T/C [25]: 89.8%
- viability, T/C [26]: 68.3%
- viability, T/C [27]: 86%
- viability, T/C [28]: 86.3%
- viability, T/C [29]: 91.1%
- viability, T/C [30]: 91.5%
- viability, T/C [31]: 95.4%
- viability, T/C [32]: 87.5%
- viability, T/C [33]: 94.1%
- viability, T/C [34]: 83.6%
- viability, T/C [35]: 96.4%
- viability, T/C [36]: 74.2%

Structure (SMILES): CCN1CCN(Cc2ccc(Nc3ncc(F)c(-c4cc(F)c5nc(C)n(C(C)C)c5c4)n3)nc2)CC1 + CC(Nc1ccc2c(c1)OCCn1cc(N3C(=O)OCC3C(F)F)nc1-2)C(N)=O
- IC50 (second compound 0.00316 µM): > 1 µM
- IC50 (second compound 0.01 µM): > 1 µM
- IC50 (second compound 0.0316 µM): > 1 µM
- IC50 (second compound 0.1 µM): > 1 µM
- IC50 (second compound 0.316 µM): > 1 µM
- IC50 (second compound 1 µM): > 1 µM
- viability, T/C (second compound 0.00316 µM, first compound 0.00316 µM): 92.9%
- viability, T/C (second compound 0.00316 µM, first compound 0.01 µM): 87.8%
- viability, T/C [1]: 80.5%
- viability, T/C [2]: 105%
- viability, T/C [3]: 91.5%
- viability, T/C [4]: 118%
- viability, T/C (second compound 0.01 µM, first compound 0.00316 µM): 97.7%
- viability, T/C (second compound 0.01 µM, first compound 0.01 µM): 98.2%
- viability, T/C [7]: 114%
- viability, T/C [8]: 89.2%
- viability, T/C [9]: 92.1%
- viability, T/C [10]: 106%
- viability, T/C (second compound 0.0316 µM, first compound 0.00316 µM): 77.1%
- viability, T/C (second compound 0.0316 µM, first compound 0.01 µM): 86.4%
- viability, T/C [13]: 83.5%
- viability, T/C [14]: 76.3%
- viability, T/C [15]: 97.8%
- viability, T/C [16]: 105%
- viability, T/C (second compound 0.1 µM, first compound 0.00316 µM): 93.4%
- viability, T/C (second compound 0.1 µM, first compound 0.01 µM): 77.6%
- viability, T/C [19]: 86.4%
- viability, T/C [20]: 77.3%
- viability, T/C [21]: 89.4%
- viability, T/C [22]: 119%
- viability, T/C (second compound 0.316 µM, first compound 0.00316 µM): 102%
- viability, T/C (second compound 0.316 µM, first compound 0.01 µM): 89%
- viability, T/C [25]: 87.2%
- viability, T/C [26]: 92.4%
- viability, T/C [27]: 90.1%
- viability, T/C [28]: 105%
- viability, T/C (second compound 1 µM, first compound 0.00316 µM): 85.6%
- viability, T/C (second compound 1 µM, first compound 0.01 µM): 83.7%
- viability, T/C [31]: 90.9%
- viability, T/C [32]: 85.8%
- viability, T/C [33]: 87.2%
- viability, T/C [34]: 96.3%

Structure (SMILES): Cn1ncc(Cl)c1-c1cc(C(=O)NC(CN)Cc2cccc(F)c2)sc1Cl (stereo unspecified) + CC(Nc1ccc2c(c1)OCCn1cc(N3C(=O)OCC3C(F)F)nc1-2)C(N)=O
- IC50 (second compound 0.00316 µM): > 10 µM
- IC50 (second compound 0.01 µM): > 10 µM
- IC50 (second compound 0.0316 µM): > 10 µM
- IC50 (second compound 0.1 µM): > 10 µM
- IC50 (second compound 0.316 µM): > 10 µM
- IC50 (second compound 1 µM): > 10 µM
- viability, T/C [1]: 106%
- viability, T/C [2]: 97.5%
- viability, T/C [3]: 75.8%
- viability, T/C [4]: 87.1%
- viability, T/C [5]: 67.7%
- viability, T/C [6]: 78.8%
- viability, T/C [7]: 107%
- viability, T/C [8]: 78.8%
- viability, T/C [9]: 70.9%
- viability, T/C [10]: 78.8%
- viability, T/C [11]: 79.6%
- viability, T/C [12]: 50.4%
- viability, T/C [13]: 101%
- viability, T/C [14]: 71.9%
- viability, T/C [15]: 75.7%
- viability, T/C [16]: 85.9%
- viability, T/C [17]: 78.7%
- viability, T/C [18]: 58.8%
- viability, T/C [19]: 75%
- viability, T/C [20]: 100%
- viability, T/C [21]: 74.5%
- viability, T/C [22]: 81.8%
- viability, T/C [23]: 76.9%
- viability, T/C [24]: 53.1%
- viability, T/C [25]: 71.3%
- viability, T/C [26]: 81.5%
- viability, T/C [27]: 92.6%
- viability, T/C [28]: 85.1%
- viability, T/C [29]: 75.4%
- viability, T/C [30]: 57.3%
- viability, T/C [31]: 86.7%
- viability, T/C [32]: 77.8%
- viability, T/C [33]: 95.4%
- viability, T/C [34]: 76.7%
- viability, T/C [35]: 75.7%
- viability, T/C [36]: 59.3%
